Source: US11884627B2, “Compounds and compositions for treating conditions associated with LPA receptor activity” (Lhotse Bio, Inc., priority 2022, dated 2024)
Like-named read-outs stand apart in the source and are kept apart here.

Biological target: T1, human LPA1 (Homo sapiens, UniProt Q92633)
T1 construct: expressed in transfected cells; host or cells: CHO-K1
Test: In vitro LPA1 calcium flux antagonist assay - Bioduro protocol
Format: cell-based
Conditions: CHO-K1 cells overexpressing human LPA1 and G15a, LPA challenge at EC80
In short: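 Calcium mobilization read on FLIPR after EC80 LPA was added to compound-pretreated (30 min) CHO-K1 cells co-expressing human LPA1 and G15a. Cells were starved 4 h and dye-loaded with Fluo-8 AM/2.5 mM probenecid in HBSS-Hepes; inhibition normalized between DMSO and LPA-control RFU.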

[1] = calcium mobilization on FLIPR Tetra, read-out: IC50
[2] = Table B3, read-out: Activity (IC50 class)

T1 sequence (Q92633 whole entry): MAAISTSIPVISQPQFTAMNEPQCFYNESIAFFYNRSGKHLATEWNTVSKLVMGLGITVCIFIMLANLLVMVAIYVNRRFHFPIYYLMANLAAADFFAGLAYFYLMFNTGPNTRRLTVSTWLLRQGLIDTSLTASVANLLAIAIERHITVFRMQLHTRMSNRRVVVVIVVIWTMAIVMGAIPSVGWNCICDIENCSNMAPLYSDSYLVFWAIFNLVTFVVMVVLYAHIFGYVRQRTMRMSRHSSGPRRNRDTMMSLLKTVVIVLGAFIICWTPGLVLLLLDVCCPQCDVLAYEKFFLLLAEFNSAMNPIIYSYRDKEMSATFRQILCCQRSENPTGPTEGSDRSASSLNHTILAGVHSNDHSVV

Row | SMILES | IC50 [1] | IC50 [2]
1 | CCOc1cc(OC)cc(-c2ccc(NC3(C(=O)O)CCOCC3)cc2COC2CC2)c1 [Compound 316] | 1080 nM | > 1000 nM
2 | CCOc1cccc(-c2ccc(NC3(C(=O)O)CC3)cc2COC2CCCC2)c1C(F)F [Compound 317] | 14 nM | < 100 nM
3 | COc1cc(-c2ccc(NC3(C(=O)O)CCOCC3)cc2COC2CC2)c(C)c(OC)c1C [Compound 318] | 9.47 nM | < 100 nM
4 | COc1cc(-c2ccc(NC3(C(=O)O)CCOCC3)cc2COC2CCCC2)c(F)cc1C [Compound 319] | 76.7 nM | < 100 nM
5 | COc1cc(OC)c(C(F)F)c(-c2ccc(NC3(C(=O)O)CCOCC3)cc2COC2CCCC2)c1 [Compound 320] | 12.1 nM | < 100 nM
6 | O=C(O)C1(Nc2ccc(-c3cccc(OC4CC4)c3C(F)F)c(COC3CC3)c2)CCOCC1 [Compound 322] | 5.9 nM | < 100 nM
7 | CCOc1ccnc(-c2ccc(NC3(C(=O)O)CCOCC3)cc2COC2CC2)c1C(F)F [Compound 323] | 833 nM | 100 to 1000 nM
8 | CCOc1cc(OC)cc(-c2ccc(NC3(C(=O)O)CCOCC3)cc2COC2CC2)n1 [Compound 324] | > 10000 nM | > 1000 nM
9 | O=C(O)C1(Nc2ccc(-c3cccc(OC4CC4)c3C(F)F)c(COC3CC3)c2)CC1 [Compound 325] | 59.6 nM | < 100 nM
10 | CCCc1cccc(-c2ccc(NC3(C(=O)O)CCOCC3)cc2COC2CC2)c1F [Compound 326] | 124 nM | 100 to 1000 nM
11 | CCc1cccc(-c2ccc(NC3(C(=O)O)CCOCC3)cc2COC2CC2)c1F [Compound 327] | 412 nM | 100 to 1000 nM
12 | Cc1cccc(-c2ccc(NC3(C(=O)O)CCOCC3)cc2COC2CC2)c1F [Compound 328] | > 10000 nM | > 1000 nM
13 | CCOc1cc(-c2ccc(NC3(C(=O)O)CCOCC3)cc2COC2CC2)cc(OC)c1C [Compound 329] | 61.9 nM | < 100 nM
14 | CCOc1cc(-c2ccc(NC3(C(=O)O)CCOCC3)cc2COC2CCCC2)cc(OC)c1C [Compound 330] | 9.53 nM | < 100 nM
15 | COc1cc(OC2CC2)cc(-c2ccc(NC3(C(=O)O)CCOCC3)cc2COC2CCCC2)c1 [Compound 331] | 9.37 nM | < 100 nM
16 | COc1cc(OC2CC2)cc(-c2ccc(NC3(C(=O)O)CCOCC3)cc2COC2CC2)c1 [Compound 332] | 139 nM | < 100 nM
17 | CCOc1cccc(-c2ccc(NC3(C(=O)O)CCC3)cc2COC2CC2)c1C(F)F [Compound 333] | 10.3 nM | < 100 nM
18 | CCCOCc1cc(NC2(C(=O)O)CCOCC2)ccc1-c1cc(OC)c(C)c(OC)c1F [Compound 334] | 45.2 nM | < 100 nM
19 | CCCCOCc1cc(NC2(C(=O)O)CCOCC2)ccc1-c1cc(OC)c(C)c(OC)c1F [Compound 335] | 5.56 nM | < 100 nM
20 | COc1cc(-c2ccc(NC3(C(=O)O)CCOCC3)cc2COCC(C)C)c(F)c(OC)c1C [Compound 336] | 18.8 nM | < 100 nM
21 | CCOc1cc(OC)cc(-c2ccc(NC3(C(=O)O)CC3)cc2COC2CC2)c1F [Compound 337] | 315 nM | 100 to 1000 nM
22 | CCOc1nccc(-c2ccc(NC3(C(=O)O)CCOCC3)cc2COC2CC2)c1C(F)F [Compound 338] | 17.2 nM | < 100 nM
23 | CCc1nccc(-c2ccc(NC3(C(=O)O)CCOCC3)cc2COC2CC2)c1F [Compound 339] | 85.3 nM | < 100 nM
24 | COc1cc(-c2ccc(NC3(C(=O)O)CCOCC3)cc2COC2CCCC2)cc(OC2CC2)c1C [Compound 340] | 26.1 nM | < 100 nM

Row | SMILES | IC50 [1] | IC50 [2]
25 | COc1cc(-c2ccc(NC3(C(=O)O)CCOCC3)cc2COC2CC2)cc(OC2CC2)c1C [Compound 341] | 214 nM | 100 to 1000 nM
26 | COc1cc(-c2ccc(NC3(C(=O)O)CCOCC3)cc2COC2CC2)c(F)c(OC)c1C#N [Compound 342] | 19.7 nM | < 100 nM
27 | COc1cc(-c2ccc(OC3(C(=O)O)CCOCC3)cc2COC2CC2)c(F)c(OC)c1C [Compound 343] | 1130 nM | > 1000 nM
28 | COc1cc(OC2CC2)c(F)c(-c2ccc(OC3(C(=O)O)CCOCC3)cc2COC2CC2)c1 [Compound 344] | 106 nM | 100 to 1000 nM
29 | COc1cc(OC2CC2)c(F)c(-c2ccc(NC3(C(=O)O)CCC(F)(F)CC3)cc2COC2CC2)c1 [Compound 346] | 7.24 nM | < 100 nM
30 | COc1cc(-c2ccc(NC3(C(=O)O)CCC(F)(F)CC3)cc2COC2CC2)c(F)c(OC)c1C [Compound 347] | 23.5 nM | < 100 nM
31 | COc1cc(-c2ccc(NC3(C(=O)O)CCC(F)(F)CC3)cc2COC2CC2)cc(OC)c1C [Compound 348] | 69.5 nM | < 100 nM
32 | COc1cc(-c2ccc(NC3(C(=O)O)CCC(F)(F)CC3)cc2COC2CCCC2)cc(OC)c1C [Compound 349] | 14.2 nM | < 100 nM
33 | CCOCc1cc(NC2(C(=O)O)CCOCC2)ccc1-c1cc(OC)c(C)c(OC)c1F [Compound 350] | 4320 nM | > 1000 nM
34 | COc1cc(-c2ccc(NC3(C(=O)O)CCOCC3)cc2COCCC(C)C)c(F)c(OC)c1C [Compound 351] | 4.63 nM | < 100 nM
35 | COc1cc(-c2ccc(NC3(C(=O)O)CCOCC3)cc2COC(C)C)c(F)c(OC)c1C [Compound 352] | 75 nM | < 100 nM
36 | COc1cc(-c2ccc(NC3(C(=O)O)CCOCC3)cc2COCC2CCC2)c(F)c(OC)c1C [Compound 353] | 8.39 nM | < 100 nM
37 | COc1cc(-c2ccc(OC3(C(=O)O)CCOCC3)cc2COC2CC2)c(C)c(OC)c1C [Compound 354] | 35.5 nM | < 100 nM
38 | CCOc1cc(OC)cc(-c2ccc(NC3(C(=O)O)CCCCC3)cc2COC2CC2)c1F [Compound 357] | 30.3 nM | < 100 nM
39 | CCOc1cccc(-c2ccc(NC3(C(=O)O)CCOCC3)cc2COC2CC2)c1C(F)(F)F [Compound 358] | 5.37 nM | < 100 nM
40 | CCOc1cccc(-c2ccc(NC3(C(=O)O)CC3)cc2COC2CC2)c1C(F)F [Compound 359] | 49.8 nM | < 100 nM
41 | CCOc1cccc(-c2ccc(NC3(C(=O)O)CC3)cc2COC2CC2)c1C [Compound 360] | 75.5 nM | < 100 nM
42 | CCOc1c(C)c(OC)cc(-c2ccc(NC3(C(=O)O)CC3)cc2COC2CC2)c1F [Compound 361] | 75.6 nM | < 100 nM
43 | COc1cc(-c2ccc(NC3(C(=O)O)CCC3)cc2COC2CC2)c(F)c(OC)c1C [Compound 362] | 356 nM | 100 to 1000 nM
44 | CCOc1cc(OC)cc(-c2ccc(NC3(C(=O)O)CCOCC3)cc2COC2CCCC2)n1 [Compound 363] | 4850 nM | > 1000 nM
45 | COc1cc(-c2ccc(NC3(C(=O)O)CCOCC3)cc2COCC2CC2)c(F)c(OC)c1C [Compound 364] | 82.9 nM | < 100 nM
46 | COc1cc(-c2ccc(OC3(C(=O)O)CCOCC3)cc2COC2CC2)c(Cl)c(OC)c1C [Compound 365] | 18.7 nM | < 100 nM
47 | COc1cc(-c2ccc(NC3(C(=O)O)CC(F)(F)C3)cc2COC2CC2)c(F)c(OC)c1C [Compound 366] | 55 nM | < 100 nM
48 | CCOc1cc(OC)cc(-c2ccc(NC3(C(=O)O)CC(F)(F)C3)cc2COC2CC2)c1F [Compound 367] | 33.2 nM | < 100 nM
